Results taken from patent US12292437B2, “Fluorescence histo-tomography (FHT) systems and methods” (Emit Imaging, Inc., priority 2015, dated 2025).

Conditions: rat, in vivo
Source text: To address some of these potential drawbacks, as described above, high resolution white light and multispectral (700 and 800 nm) fluorescence images may be captured off the block after every pass of the micro- or macrotome blade using an intraoperative fluorescence imaging system, thus vastly improving the amount of information captured throughout the specimen and decreasing total acquisition time. Generally, the process of fluorescent and high resolution white light data collection and subsequent co-registration and/or three-dimensional reconstruction, is referred to herein as cryofluorescence tomography or FHT.
To investigate the ability of FHT to study the physiology of the brain, XenoLight RediJect 2-Deoxy-D-glucose (2-DG, PerkinElmer, 750 nm excitation), a fluorescent glucose metabolism tracer, was injected into the intrathecal space of a rat. After 1.5 hours of distribution, the animal was sacrificed, the brain tissue excised, and the sample was cryopresevered in OCT. With each pass of the microtome blade (25 micron spacing), a high resolution white light and fluorescent image was acquired.
Further, to study the anatomy of ventricles and subarachnoid space, a fluorescent zwitterionic compound ZW800-1 (Curadel, LLC) was injected into the rat intrathecal space. This compound is not expected to cross into the brain parenchyma due to its chemical properties. […]

## XenoLight RediJect 2-Deoxy-D-glucose [2-DG]
  fluorescence signal in brain parenchyma: taken up in the brain parenchyma
